From patent US10675360B2 (MADRIGAL PHARMACEUTICALS, INC., priority 2014, dated 2020)
Like-named read-outs stand apart in the source and are kept apart here.

Columns and labels:
[1] = Stability in mouse plasma; type: in vitro ADME; details: 1 h
[2] = Tissue distribution of SDC-TRAPs in tumor-bearing mice (plasma, tumor, heart); details: mouse, in vivo
H 3211 NSLC cells = experiment: IC50 of continuous and pulsed exposure to SDC-TRAPs; type: cell-based
[3] = 1 h, read-out: IC50, 1 h-pulse/71 h-compound free, H 3211 NSLC cells, 7.5 × 10^3 cells/well, 1st of 2 columns
[4] = 1 h, read-out: IC50, 1 h-pulse/71 h-compound free, H 3211 NSLC cells, 7.5 × 10^3 cells/well, 2nd of 2 columns
[5] = 72 h, read-out: IC50, 72 h-continuous, H 3211 NSLC cells, 7.5 × 10^3 cells/well, 1st of 3 columns
[6] = 72 h, read-out: IC50, 72 h-continuous, H 3211 NSLC cells, 7.5 × 10^3 cells/well, 2nd of 3 columns
[7] = 72 h, read-out: IC50, 72 h-continuous, H 3211 NSLC cells, 7.5 × 10^3 cells/well, 3rd of 3 columns

Row | SMILES | IC50 (H 3211 NSLC cells; [3]) [µM] | IC50 (H 3211 NSLC cells; [4]) [µM] | IC50 (H 3211 NSLC cells; [5]) [µM] | IC50 (H 3211 NSLC cells; [6]) [µM] | IC50 (H 3211 NSLC cells; [7]) [µM] | further results
1 | CC(C)c1cc(-c2nnc(O)n2-c2ccc(CC3CCN(CC(=O)Nc4cccc5c4CN(C4CCC(=O)NC4=O)C5=O)CC3)cc2)c(O)cc1O (stereo not drawn) [SDC-TRAP-0116, 2-(4-(4-(3-(2,4-dihydroxy-5-isopropylphenyl)-5-hydroxy-4H-1,2,4-triazol-4-yl)benzyl)piperidin-1-yl)-N-(2-(2,6-dioxopiperidin-3-yl)-1-oxoisoindolin-4-yl) acetamide] | – | – | – | – | – | % Remaining ([1]; mouse, plasma, 10 μM): 91.1%; Kp at 48 h [2]: 4.65
2 | CCc1c2c(nc3ccc(OCC(=O)NCCn4ccc5cc(-n6c(O)nnc6-c6cc(C(C)C)c(O)cc6O)ccc54)cc13)-c1cc3c(c(=O)n1C2)COC(=O)C3(O)CC (stereo not drawn) [SDC-TRAP-0023, 2-((4,11-diethyl-4-hydroxy-3,14-dioxo-3,4,12,14-tetrahydro-1H-pyrano[3′,4′: 6,7]indolizino[1,2-b]quinolin-9-yl)oxy)-N-(2-(5-(3-(2,4-dihydroxy-5-isopropylphenyl)-5-hydroxy-4H-1,2,4-triazol-4-yl)-1H-indol-1-yl)ethyl)acetamide] | > 3 | > 3 | 0.059 | 0.239 | 0.113 | –
3 | CC(C)c1cc(-c2nnc(O)n2-c2ccc3c(ccn3CCOCCNC(=O)CCCC(=O)Nc3cccc4c3CN(C3CCC(=O)NC3=O)C4=O)c2)c(O)cc1O (stereo not drawn) [SDC-TRAP-0015, N1-(2-(2-(5-(3-(2,4-dihydroxy-5-isopropylphenyl)-5-hydroxy-4H-1,2,4-triazol-4-yl)-1H-indol-1-yl)ethoxy)ethyl)-N5-(2-(2,6-dioxopiperidin-3-yl)-1-oxoisoindolin-4-yl)glutaramide] | > 3 | > 3 | – | 2.23 | – | –
4 | CCc1c2c(nc3ccc(O)cc13)-c1cc3c(c(=O)n1C2)COC(=O)[C@]3(O)CC [SN-38] | – | – | – | – | – | Plasma Conc. ([2]; 1 h): 4.34 µM; Tumor/Plasma Ratio ([2]; 1 h): 0.11; concentration at 1 h ([2]; Plasma Conc.): 8.6 µM; Kp at 1 h ([2]; Tumor/Plasma Ratio): 0.07
5 | CNCCn1ccc2cc(-n3c(O)nnc3-c3cc(C(C)C)c(O)cc3O)ccc21 [SDC-TRAP-0004] | – | – | – | – | – | IC50 (H 3211 NSLC cells; read-out: IC50, 1 h-pulse/71 h-compound free, H 3211 NSLC cells, 7.5 × 10^3 cells/well, 1st of 2 columns): 0.624 µM; IC50 (H 3211 NSLC cells; read-out: IC50, 1 h-pulse/71 h-compound free, H 3211 NSLC cells, 7.5 × 10^3 cells/well, 2nd of 2 columns): 1.75 µM; IC50 (H 3211 NSLC cells; read-out: IC50, 72 h-continuous, H 3211 NSLC cells, 7.5 × 10^3 cells/well, 1st of 3 columns): 0.022 µM; IC50 (H 3211 NSLC cells; read-out: IC50, 72 h-continuous, H 3211 NSLC cells, 7.5 × 10^3 cells/well, 2nd of 3 columns): 0.06 µM; IC50 (H 3211 NSLC cells; read-out: IC50, 72 h-continuous, H 3211 NSLC cells, 7.5 × 10^3 cells/well, 3rd of 3 columns): 0.04 µM
6 | CCc1c2c(nc3ccc(OCC(=O)N(C)CCn4ccc5cc(-n6c(O)nnc6-c6cc(C(C)C)c(O)cc6O)ccc54)cc13)-c1cc3c(c(=O)n1C2)COC(=O)C3(O)CC (stereo not drawn) [SDC-TRAP-0027, 2-((4,11-diethyl-4-hydroxy-3,14-dioxo-3,4,12,14-tetrahydro-1H-pyrano[3′,4′:6,7]indolizino[1,2-b]quinolin-9-yl)oxy)-N-(2-(5-(3-(2,4-dihydroxy-5-isopropylphenyl)-5-hydroxy-4H-1,2,4-triazol-4-yl)-1H-indol-1-yl)ethyl)-N-methylacetamide] | > 3 | > 3 | – | 1.74 | 1.33 | –
7 | CCc1c2c(nc3ccc(O)cc13)-c1cc3c(c(=O)n1C2)COC(=O)C3(CC)OC(=O)CCCNC(=O)c1cc2cc(-n3c(O)nnc3-c3cc(C(C)C)c(O)cc3O)ccc2n1C (stereo not drawn) [SDC-TRAP-0024, 4,11-diethyl-9-hydroxy-3,14-dioxo-3,4,12,14-tetrahydro-1H-pyrano[3′,4′:6,7]indolizino[1,2-b]quinolin-4-yl 4-(5-(3-(2,4-dihydroxy-5-isopropylphenyl)-5-hydroxy-4H-1,2,4-triazol-4-yl)-1-methyl-1H-indole-2-carboxamido)butanoate] | – | – | 0.076 | – | – | –
8 | CC(C)c1cc(-c2nnc(O)n2-c2ccc3c(ccn3CCN(C)C(=O)CCCC(=O)Nc3cccc4c3CN(C3CCC(=O)NC3=O)C4=O)c2)c(O)cc1O (stereo not drawn) [SDC-TRAP-0018, N1-(2-(5-(3-(2,4-dihydroxy-5-isopropylphenyl)-5-hydroxy-4H-1,2,4-triazol-4-yl)-1H-indol-1-yl)ethyl)-N5-(2-(2,6-dioxopiperidin-3-yl)-1-oxoisoindolin-4-yl)-N1-methylglutaramide] | > 3 | > 3 | 0.287 | 0.839 | 0.735 | –
9 | CCc1c2c(nc3ccc(OC(=O)N(C)CCCCN4CCN(Cc5ccc(-n6c(O)nnc6-c6cc(C(C)C)c(O)cc6O)cc5)CC4)cc13)-c1cc3c(c(=O)n1C2)COC(=O)C3(O)CC (stereo not drawn) [SDC-TRAP-0044, 4,11-diethyl-4-hydroxy-3,14-dioxo-3,4,12,14-tetrahydro-1H-pyrano[3′,4′:6,7]indolizino[1,2-b]quinolin-9-yl (4-(4-(4-(3-(2,4-dihydroxy-5-isopropylphenyl)-5-hydroxy-4H-1,2,4-triazol-4-yl)benzyl)piperazin-1-yl)butyl)(methyl)carbamate] | – | – | – | – | – | % Remaining ([1]; mouse plasma, 37° C.): 61%
10 | CCNC(=O)c1nnc(-c2cc(C(C)C)c(O)cc2O)n1-c1ccc2c(ccn2CCC2CCN(C(=O)O[C@]3(CC)C(=O)OCc4c3cc3n(c4=O)Cc4c-3nc3ccc(O)cc3c4CC)CC2)c1 [SDC-TRAP-0208, (S)-4,11-diethyl-9-hydroxy-3,14-dioxo-3,4,12,14-tetrahydro-1H-pyrano[3′,4′:6,7]indolizino[1,2-b]quinolin-4-yl 4-(2-(5-(3-(2,4-dihydroxy-5-isopropylphenyl)-5-(ethylcarbamoyl)-4H-1,2,4-triazol-4-yl)-1H-indol-1-yl)ethyl)piperidine-1-carboxylate] | – | – | – | – | – | % Remaining ([1]; mouse plasma, 37° C.): 86.1%
11 | CCNC(=O)c1nnc(-c2cc(C(C)C)c(O)cc2O)n1-c1ccc(Oc2ccc(C(=O)N3CCC(COC(=O)Nc4cccc5c4CN(C4CCC(=O)NC4=O)C5=O)CC3)cc2)cc1 (stereo not drawn) [SDC-TRAP-0125, (1-(4-(4-(3-(2,4-Dihydroxy-5-isopropylphenyl)-5-(ethylcarbamoyl)-4H-1,2,4-triazol-4-yl)phenoxy)benzoyl)piperidin-4-yl)methyl (2-(2,6-dioxopiperidin-3-yl)-1-oxoisoindolin-4-yl)carbamate] | – | – | – | – | – | % Remaining ([1]; mouse, plasma, 10 μM): 99.4%
12 | CCc1c2c(nc3ccc(OCC(=O)N(C)CCOCCn4ccc5cc(-n6c(O)nnc6-c6cc(C(C)C)c(O)cc6O)ccc54)cc13)-c1cc3c(c(=O)n1C2)COC(=O)C3(O)CC (stereo not drawn) [SDC-TRAP-0028, 2-((4,11-diethyl-4-hydroxy-3,14-dioxo-3,4,12,14-tetrahydro-1H-pyrano[3′,4′:6,7]indolizino[1,2-b]quinolin-9-yl)oxy)-N-(2-(2-(5-(3-(2,4-dihydroxy-5-isopropylphenyl)-5-hydroxy-4H-1,2,4-triazol-4-yl)-1H-indol-1-yl)ethoxy)ethyl)-N-methylacetamide] | > 3 | > 3 | 0.468 | 1.76 | 0.499 | % Remaining ([1]; mouse, plasma, 10 μM): 41%
13 | CCNC(=O)c1nnc(-c2cc(C(C)C)c(O)cc2O)n1-c1ccc(CN2CCC(C(=O)N3CCC[C@H]3C(=O)Nc3cccc4c3CN(C3CCC(=O)NC3=O)C4=O)CC2)cc1 (stereo partly drawn) [SDC-TRAP-0164, 5-(2,4-dihydroxy-5-isopropylphenyl)-4-(4-((4-((2S)-2-((2-(2,6-dioxopiperidin-3-yl)-1-oxoisoindolin-4-yl)carbamoyl)pyrrolidine-1-carbonyl)piperidin-1-yl)methyl)phenyl)-N-ethyl-4H-1,2,4-triazole-3-carboxamide] | – | – | – | – | – | % Remaining ([1]; mouse, plasma, 10 μM): 98.0%

Now from value to compound, other results behind:

Row | IC50 (H 3211 NSLC cells; [3]) [µM] | IC50 (H 3211 NSLC cells; [4]) [µM] | IC50 (H 3211 NSLC cells; [5]) [µM] | IC50 (H 3211 NSLC cells; [6]) [µM] | IC50 (H 3211 NSLC cells; [7]) [µM] | SMILES | further results
14 | > 3 | > 3 | 0.431 | 0.817 | 0.902 | CC(C)c1cc(-c2nnc(O)n2-c2ccc3c(ccn3CCN(C)C(=O)NCC(=O)Nc3cccc4c3CN(C3CCC(=O)NC3=O)C4=O)c2)c(O)cc1O (stereo not drawn) [SDC-TRAP-0021, 2-(3-(2-(5-(3-(2,4-dihydroxy-5-isopropylphenyl)-5-hydroxy-4H-1,2,4-triazol-4-yl)-1H-indol-1-yl)ethyl)-3-methylureido)-N-(2-(2,6-dioxopiperidin-3-yl)-1-oxoisoindolin-4-yl)acetamide] | –
15 | > 3 | > 3 | 0.587 | 2.62 | 2.01 | CC(C)c1cc(-c2nnc(O)n2-c2ccc3c(ccn3CCOCCNC(=O)c3ccc(CCc4c[nH]c5nc(N)[nH]c(=O)c45)cc3)c2)c(O)cc1O [SDC-TRAP-0020, 4-(2-(2-amino-4-oxo-4,7-dihydro-3H-pyrrolo[2,3-d]pyrimidin-5-yl)ethyl)-N-(2-(2-(5-(3-(2,4-dihydroxy-5-isopropylphenyl)-5-hydroxy-4H-1,2,4-triazol-4-yl)-1H-indol-1-yl)ethoxy)ethyl)benzamide] | –
16 | > 3 | > 3 | 0.209 | 0.713 | 0.258 | CC(C)c1cc(-c2nnc(O)n2-c2ccc3c(ccn3CCN(C)C(=O)c3ccc(CCc4c[nH]c5nc(N)[nH]c(=O)c45)cc3)c2)c(O)cc1O [SDC-TRAP-0019, 4-(2-(2-amino-4-oxo-4,7-dihydro-3H-pyrrolo[2,3-d]pyrimidin-5-yl)ethyl)-N-(2-(5-(3-(2,4-dihydroxy-5-isopropylphenyl)-5-hydroxy-4H-1,2,4-triazol-4-yl)-1H-indol-1-yl)ethyl)-N-methylbenzamide] | –
